Laboratory results as given in PMC12775434, “Ultra-large virtual screening unveils potent agonists of the neuromodulatory orphan receptor GPR139” (Nature Communications, 2025).
Several values for one entry are separate records, joined by “and”; a condition that tells them apart may be missing. Equal entries are not always repeated. Where two headings read alike, the source gives them in different places.

Target: T1, GPR139 (Homo sapiens, UniProt Q6DWJ6)
T1 sequence (Q6DWJ6 1-353): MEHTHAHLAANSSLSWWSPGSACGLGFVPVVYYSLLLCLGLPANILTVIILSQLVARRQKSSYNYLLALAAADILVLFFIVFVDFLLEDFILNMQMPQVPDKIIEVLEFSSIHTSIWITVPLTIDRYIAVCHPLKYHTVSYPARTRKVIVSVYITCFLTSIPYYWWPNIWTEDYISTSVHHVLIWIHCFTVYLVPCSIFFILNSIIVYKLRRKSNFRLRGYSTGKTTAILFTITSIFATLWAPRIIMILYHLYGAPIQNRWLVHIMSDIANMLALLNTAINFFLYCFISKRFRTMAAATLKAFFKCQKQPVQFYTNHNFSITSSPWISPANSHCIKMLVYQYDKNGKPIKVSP
Assay: Ca2+ mobilization assay, agonist mode, stable GPR139-CHOk1 cell line
Format: cell-based
Conditions: for Emax: normalized to Lundbeck Cmp 1a
In short: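 Agonist activity of compounds is assessed in stably transfected CHO-K1 cells using the calcium dye Fluo-4 at 37 °C in HEPES-buffered HBSS (pH 7.4). Efficacy is expressed relative to the reference agonist Lundbeck Cmp 1a, set as 100%.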

[1] = 0.1 µM, individual replicates (Supplementary Figure 3)
[2] = 1 µM, individual replicates (Supplementary Figure 3)
[3] = 10 µM, individual replicates (Supplementary Figure 3)
[4] = Agonist mode, individual replicates (Supplementary Figure 1)
[5] = GPR139-CHOk1, read-out: EC50, Ca2+ mobilization
[6] = Supplementary Table 2, mean ± SEM, read-out: Emax (%) Ca2+
[7] = log [Compound] M -4.5, replicate experiments
[8] = log [Compound] M -5.0, replicate experiments
[9] = log [Compound] M -5.5, replicate experiments
[10] = log [Compound] M -6.0, replicate experiments
[11] = log [Compound] M -6.5, replicate experiments
[12] = log [Compound] M -7.0, replicate experiments
[13] = log [Compound] M -7.5, replicate experiments
[14] = log [Compound] M -8.0, replicate experiments
[15] = log [Compound] M -8.5, replicate experiments
[16] = log [Compound] M -9.0, replicate experiments
[17] = primary screen, 10 µM compound, agonist mode, three columns = independent experiments
[18] = Supplementary Table 2, mean ± SEM, read-out: pEC50 Ca2+ (converted)
[19] = Supplementary Table 7, enantiopure compounds, read-out: pEC50, Ca2+ mobilization (converted)

Row | SMILES | Ca2+ signal (% of Cmp 1a) [1] | Ca2+ signal (% of Cmp 1a) [2] | Ca2+ signal (% of Cmp 1a) [3] | Ca2+ signal (% of Cmp 1a) [4] | EC50 [5] [µM] | Emax [6] [%] | Ca2+ signal (% of Cmp 1a) [7] | Ca2+ signal (% of Cmp 1a) [8] | Ca2+ signal (% of Cmp 1a) [9] | Ca2+ signal (% of Cmp 1a) [10] | Ca2+ signal (% of Cmp 1a) [11] | Ca2+ signal (% of Cmp 1a) [12] | Ca2+ signal (% of Cmp 1a) [13] | Ca2+ signal (% of Cmp 1a) [14] | Ca2+ signal (% of Cmp 1a) [15] | Ca2+ signal (% of Cmp 1a) [16] | Ca2+ signal (% of Cmp 1a) [17] | EC50 [18] [µM] | EC50 [19] [µM] | also measured
1 | CC(NC(=O)Cn1cncc(-c2ccccc2)c1=O)c1ccccc1 (stereo not shown) [Compound 5, C[C@@H](NC(=O)CN1C=NC=C(C=2C=CC=CC2)C1=O)C=3C=CC=CC3] | 0.9 % of Cmp 1a and -12.1 % of Cmp 1a | 17.5 % of Cmp 1a and 11.9 % of Cmp 1a | 52.6 % of Cmp 1a and 31.9 % of Cmp 1a | 71 % of Cmp 1a and 78 % of Cmp 1a and 63 % of Cmp 1a | 3.6 | 88 ± 4 | 91 % of Cmp 1a and 74 % of Cmp 1a and 86 % of Cmp 1a | 75 % of Cmp 1a and 51 % of Cmp 1a and 76 % of Cmp 1a | 60 % of Cmp 1a and 41 % of Cmp 1a and 50 % of Cmp 1a | 23 % of Cmp 1a (2×) and 24 % of Cmp 1a | 16 % of Cmp 1a (2×) and 0.619 % of Cmp 1a | 11 % of Cmp 1a | 9 % of Cmp 1a and 2.21 % of Cmp 1a and 7 % of Cmp 1a | 3.64 % of Cmp 1a and 0.518 % of Cmp 1a and 5.27 % of Cmp 1a | 13 % of Cmp 1a and 0.00547 % of Cmp 1a and 8 % of Cmp 1a | 7 % of Cmp 1a and -1.29 % of Cmp 1a and 10 % of Cmp 1a | 71 % of Cmp 1a and 78 % of Cmp 1a and 63 % of Cmp 1a | – | – | –
2 | COc1cc(-c2nc(CC(=O)NC(C)c3ccccc3)no2)ccn1 (stereo not shown) [Compound 1.7, COC1=NC=CC(C2=NC(CC(NC(C3=CC=CC=C3)C)=O)=NO2)=C1] | – | – | – | – | – | 113 ± 9 | – | – | – | – | – | – | – | – | – | – | – | 0.2 | – | Ca2+ signal (% of Cmp 1a) (Agonist mode, individual replicates (Supplementary Figure 4)): 105 % of Cmp 1a and 108 % of Cmp 1a and 111 % of Cmp 1a; Ca2+ signal (% of Cmp 1a) (log [Compound] M = -4.5, individual replicate columns): 109 % of Cmp 1a and 102 % of Cmp 1a and 120 % of Cmp 1a; Ca2+ signal (% of Cmp 1a) (log [Compound] M = -5.0, individual replicate columns): 102 % of Cmp 1a and 110 % of Cmp 1a and 134 % of Cmp 1a; Ca2+ signal (% of Cmp 1a) (log [Compound] M = -5.5, individual replicate columns): 95 % of Cmp 1a and 141 % of Cmp 1a and 154 % of Cmp 1a; Ca2+ signal (% of Cmp 1a) (log [Compound] M = -6.0, individual replicate columns): 70 % of Cmp 1a and 89 % of Cmp 1a and 113 % of Cmp 1a; Ca2+ signal (% of Cmp 1a) (log [Compound] M = -6.5, individual replicate columns): 61 % of Cmp 1a and 84 % of Cmp 1a and 68 % of Cmp 1a; Ca2+ signal (% of Cmp 1a) (log [Compound] M = -7.0, individual replicate columns): 40 % of Cmp 1a and 48 % of Cmp 1a and 53 % of Cmp 1a; Ca2+ signal (% of Cmp 1a) (log [Compound] M = -7.5, individual replicate columns): 13 % of Cmp 1a and 22 % of Cmp 1a and 34 % of Cmp 1a; Ca2+ signal (% of Cmp 1a) (log [Compound] M = -8.0, individual replicate columns): 1.88 % of Cmp 1a and 6 % of Cmp 1a and 10 % of Cmp 1a; Ca2+ signal (% of Cmp 1a) (log [Compound] M = -8.5, individual replicate columns): 4.28 % of Cmp 1a and 11 % of Cmp 1a and 7 % of Cmp 1a; Ca2+ signal (% of Cmp 1a) (log [Compound] M = -9.0, individual replicate columns): -0.46 % of Cmp 1a and 10 % of Cmp 1a and 7 % of Cmp 1a
3 | COc1cc(OC)cc(C(=O)NNC(=O)Nc2cccc3ccccc23)c1 [Lundbeck Cmp 1a, reference compound] | – | – | – | – | 0.2 | 108 ± 3 | 104 % of Cmp 1a and 101 % of Cmp 1a and 98 % of Cmp 1a and 116 % of Cmp 1a and 117 % of Cmp 1a and 88 % of Cmp 1a and 112 % of Cmp 1a and 95 % of Cmp 1a and 103 % of Cmp 1a and 94 % of Cmp 1a | 104 % of Cmp 1a and 115 % of Cmp 1a and 107 % of Cmp 1a and 118 % of Cmp 1a and 110 % of Cmp 1a and 88 % of Cmp 1a and 112 % of Cmp 1a and 119 % of Cmp 1a | 96 % of Cmp 1a and 113 % of Cmp 1a and 100 % of Cmp 1a and 95 % of Cmp 1a and 84 % of Cmp 1a and 88 % of Cmp 1a and 114 % of Cmp 1a and 103 % of Cmp 1a and 108 % of Cmp 1a and 126 % of Cmp 1a | 81 % of Cmp 1a and 96 % of Cmp 1a and 87 % of Cmp 1a and 69 % of Cmp 1a and 82 % of Cmp 1a and 73 % of Cmp 1a and 84 % of Cmp 1a and 75 % of Cmp 1a and 88 % of Cmp 1a and 109 % of Cmp 1a | 63 % of Cmp 1a and 62 % of Cmp 1a and 65 % of Cmp 1a and 67 % of Cmp 1a and 53 % of Cmp 1a and 60 % of Cmp 1a and 76 % of Cmp 1a and 64 % of Cmp 1a and 68 % of Cmp 1a | 38 % of Cmp 1a (2×) and 39 % of Cmp 1a | 20 % of Cmp 1a and 15 % of Cmp 1a and 23 % of Cmp 1a and 11 % of Cmp 1a and 2.33 % of Cmp 1a and 22 % of Cmp 1a and 19 % of Cmp 1a and 29 % of Cmp 1a and 16 % of Cmp 1a and 35 % of Cmp 1a | 1.56 % of Cmp 1a and 5 % of Cmp 1a and 17 % of Cmp 1a and -13 % of Cmp 1a and 8 % of Cmp 1a and 12 % of Cmp 1a and 9 % of Cmp 1a and 3 % of Cmp 1a and 6.33 % of Cmp 1a | -0.447 % of Cmp 1a and 1.52 % of Cmp 1a and 10 % of Cmp 1a and -20 % of Cmp 1a and 2.33 % of Cmp 1a and 11 % of Cmp 1a and 4.67 % of Cmp 1a and -2 % of Cmp 1a and -1 % of Cmp 1a and 5 % of Cmp 1a and 23 % of Cmp 1a | -1.54 % of Cmp 1a and 0.497 % of Cmp 1a and 16 % of Cmp 1a and -12 % of Cmp 1a and 8 % of Cmp 1a and 9 % of Cmp 1a and 3.33 % of Cmp 1a and 13 % of Cmp 1a and 11 % of Cmp 1a | – | – | 0.158 | –
4 | Cc1cscc1-c1nc(CC(=O)N[C@H](C)c2ccccc2)no1 [1.1(R)] | – | – | – | – | – | – | – | – | – | – | – | – | – | – | – | – | – | – | 0.316 | Emax (Supplementary Table 7, read-out: Emax (%), Ca2+ mobilization): 112 ± 1%; Ca2+ signal (% of Cmp 1a) (log [Compound] M -8.5, individual replicates): 12 % of Cmp 1a and 7 % of Cmp 1a and 3.33 % of Cmp 1a; Ca2+ signal (% of Cmp 1a) (log [Compound] M -9.0, individual replicates): 9 % of Cmp 1a and 0.333 % of Cmp 1a and -1.33 % of Cmp 1a; Ca2+ signal (% of Cmp 1a) (log [Compound] M -12.0, individual replicates): 0 % of Cmp 1a; Ca2+ signal (% of Cmp 1a) (log [compound] M -4.5, individual replicates): 101 % of Cmp 1a and 112 % of Cmp 1a and 116 % of Cmp 1a; Ca2+ signal (% of Cmp 1a) (log [compound] M -5.0, individual replicates): 100 % of Cmp 1a and 104 % of Cmp 1a and 97 % of Cmp 1a; Ca2+ signal (% of Cmp 1a) (log [compound] M -5.5, individual replicates): 97 % of Cmp 1a and 88 % of Cmp 1a and 90 % of Cmp 1a; Ca2+ signal (% of Cmp 1a) (log [compound] M -6.0, individual replicates): 74 % of Cmp 1a and 79 % of Cmp 1a and 77 % of Cmp 1a; Ca2+ signal (% of Cmp 1a) (log [compound] M -6.5, individual replicates): 50 % of Cmp 1a and 51 % of Cmp 1a and 65 % of Cmp 1a; Ca2+ signal (% of Cmp 1a) (log [compound] M -7.0, individual replicates): 32 % of Cmp 1a and 25 % of Cmp 1a and 37 % of Cmp 1a; Ca2+ signal (% of Cmp 1a) (log [compound] M -7.5, individual replicates): 15 % of Cmp 1a and 13 % of Cmp 1a and 16 % of Cmp 1a; Ca2+ signal (% of Cmp 1a) (log [compound] M -8.0, individual replicates): 9 % of Cmp 1a and 4.67 % of Cmp 1a and 8 % of Cmp 1a
5 | Cc1noc(C(C)NC(=O)Nc2cccc(-c3ccccc3)c2)n1 (stereo not shown) [Compound 3, CC(NC(=O)NC=1C=CC=C(C1)C=2C=CC=CC2)C3=NC(C)=NO3] | 5.3 % of Cmp 1a and 10.2 % of Cmp 1a | 18.7 % of Cmp 1a and 1.8 % of Cmp 1a | 46.3 % of Cmp 1a | 55 % of Cmp 1a and 56 % of Cmp 1a and 62 % of Cmp 1a | – | 70 ± 3 | 57 % of Cmp 1a and 72 % of Cmp 1a and 70 % of Cmp 1a | 55 % of Cmp 1a and 59 % of Cmp 1a and 65 % of Cmp 1a | 25 % of Cmp 1a and 54 % of Cmp 1a and 37 % of Cmp 1a | 11 % of Cmp 1a and 34 % of Cmp 1a and 21 % of Cmp 1a | -1.52 % of Cmp 1a and 4.42 % of Cmp 1a and 16 % of Cmp 1a | -7 % of Cmp 1a and -0.413 % of Cmp 1a and 6 % of Cmp 1a | -4.33 % of Cmp 1a and 4 % of Cmp 1a and 8 % of Cmp 1a | -1.83 % of Cmp 1a and -3.24 % of Cmp 1a and 5 % of Cmp 1a | -10 % of Cmp 1a and -2 % of Cmp 1a and 4.52 % of Cmp 1a | 0.621 % of Cmp 1a and -0.857 % of Cmp 1a and 2.53 % of Cmp 1a | 55 % of Cmp 1a and 56 % of Cmp 1a and 62 % of Cmp 1a | 2.51 | – | –
